According to the supplement of paper PMC4858399:

How the values were obtained:
Details in all cases: exposure time 48 h
[1] = tested on: Caenorhabditis elegans N2; test: mean nematode size ln(EXT) after 48 h, plate-adjusted (DMSO control set to 6) (ln(EXT), control-adjusted); higher = larger nematodes / less growth inhibition
Outline: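 Synchronised C. elegans N2 L1 larvae (50 per well, 4–6 wells per treatment) were grown for 48 h at 20°C in K-medium with killed OP50, 1% DMSO and 0.5–200 µM chemical. The Biosort measured each worm's extinction, and debris was removed by a growth model. Values were natural-logged and averaged per well. Mean size was then plate-adjusted by subtracting the vehicle control mean and adding 6.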

[2] = tested on: Caenorhabditis elegans N2; test: lowest effective concentration for larval growth inhibition (size below effect threshold); higher = less potent
Outline: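 Each well of a 96-well plate received 50 C. elegans N2 L1 larvae, which grew for 48 h at 20°C in K-medium containing killed bacteria, 1% DMSO and the chemical at 0.5, 1, 5, 10, 50, 100 or 200 µM. A Biosort recorded the extinction of every worm as its size, and these readings were log-transformed and averaged per well. The lowest effective concentration is defined as the first dose at which the plate-adjusted mean size falls below the threshold and stays below it at all higher doses; that threshold is 5.665.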

[3] = tested on: Caenorhabditis elegans N2; test: AC50 for larval growth inhibition (Hill fit); higher = less potent
Outline: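 After 48 h at 20°C in K-medium with killed OP50, 1% DMSO and 0.5–200 µM chemical, synchronised C. elegans N2 L1 larvae (50 per well, 96-well plates) were sized individually as extinction on a COPAS Biosort. These values were log-transformed and averaged per well, and wells with fewer than 10 worms were excluded. The AC50 was derived from a constrained Hill fit by weighted genetic-algorithm regression, and out-of-range values are censored.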

Row | SMILES | mean nematode size ln(EXT) (ln) ([1]; 0.5 µM) | mean nematode size ln(EXT) (ln) ([1]; 1 µM) | mean nematode size ln(EXT) (ln) ([1]; 5 µM) | mean nematode size ln(EXT) (ln) ([1]; 10 µM) | mean nematode size ln(EXT) (ln) ([1]; 50 µM) | mean nematode size ln(EXT) (ln) ([1]; 100 µM) | mean nematode size ln(EXT) (ln) ([1]; 200 µM) | lowest effective concentration [2] [µM] | AC50 for larval growth inhibition [3] [µM]
1 | O=C(Nc1ccccc1)Nc1cnns1 [Thidiazuron] | 6.05 | 6.18 | 6.1 | 5.93 | 6.01 | 5.89 | 4.8 | 200 | > 200
2 | C=C(C)CN(CC)c1c([N+](=O)[O-])cc(C(F)(F)F)cc1[N+](=O)[O-] [Ethalfluralin] | 5.89 | 6.05 | 5.94 | 5.8 | 6.1 | 5.98 | 4.85 | 200 | 141
3 | NC(=O)N/N=C/c1ccc([N+](=O)[O-])o1 [5-Nitro-2-furaldehyde semicarbazone] | 5.78 | 5.76 | 5.75 | 5.76 | 5.65 | 5.61 | 5.24 | 50 | > 200
4 | CC(C)c1nnc2ccc(-c3ocnc3-c3cc(F)ccc3F)cn12 | 5.79 | 5.88 | 5.84 | 5.82 | 5.82 | 5.79 | 5.53 | 200 | > 200
5 | O=C(Nc1ccccc1)Nc1ccnc(Cl)c1 [Forchlorfenuron] | 5.77 | 5.96 | 5.81 | 5.82 | 5.44 | 5.54 | 4.5 | 50 | > 200
6 | Cc1ccc(C(C)(C)C)c(O)c1 [2-tert-Butyl-5-methylphenol] | 6.07 | 6.05 | 6.02 | 6.06 | 5.95 | 5.91 | 4.77 | 200 | > 200
7 | O=C(c1ccccc1)c1ccccc1 [Benzophenone] | 5.86 | 6.01 | 5.94 | 5.89 | 5.79 | 5.66 | 4.65 | 100 | > 200
8 | c1ccc2ccccc2c1 [Naphthalene] | 5.99 | 5.93 | 5.96 | 5.78 | 5.87 | 5.92 | 4.83 | 200 | > 200
9 | CC(=O)c1ccc2c(c1)[C@H](NC(=O)c1ccc(F)cc1)[C@@H](O)C(C)(C)O2 [Carabersat] | 5.79 | 5.88 | 5.9 | 5.89 | 5.99 | 5.93 | 5.65 | 200 | 127
10 | Clc1ccc(Cl)cc1 [1,4-Dichlorobenzene] | 5.89 | 5.93 | 5.94 | 5.84 | 5.84 | 5.73 | 5.58 | 200 | > 200
11 | Nc1ccc(Cl)cc1 [p-Chloroaniline] | 5.79 | 5.76 | 5.74 | 5.76 | 5.28 | 4.43 | 4.21 | 50 | 58.2
12 | CC(=O)S[C@H](C(=O)N[C@H]1Cc2ccccc2[C@H]2CCC[C@@H](C(=O)O)N2C1=O)C(C)C [Ilepatril] | 5.89 | 5.83 | 5.76 | 5.88 | 5.84 | 5.8 | 5.58 | 200 | > 200
13 | Oc1ccc2c(c1)OC[C@@H](N1CCC(O)(c3ccc(F)cc3)CC1)[C@H]2O | 5.9 | 6.11 | 6.21 | 6.18 | 5.48 | 4.39 | 4.5 | 50 | 51.4
14 | CCN1CCC2(CC1)COc1cc3c(cc12)N(C(=O)c1ccc(-c2ccc(-c4nnc(C)o4)cc2C)cc1)CC3 | 5.74 | 5.82 | 5.74 | 5.84 | 5.56 | 4.06 | 4.5 | 50 | 52.6
15 | c1ccc2c(c1)ccc1ccccc12 [Phenanthrene] | 5.95 | 5.89 | 5.84 | 3.51 | 3.73 | 4.1 | 3.29 | 10 | 5.56
16 | O=C(NC(=O)c1cc(F)c(F)cc1Cl)Nc1cc(F)ccc1N1CCC(C(=O)O)CC1 | 5.94 | 5.9 | 5.94 | 5.9 | 5.93 | 5.73 | 5.57 | 200 | 91.3
17 | O=C(NO)C1(NS(=O)(=O)c2ccc(Oc3ccc(F)cc3)cc2)CCOCC1 | 5.72 | 6.03 | 5.84 | 5.9 | 5.89 | 5.71 | 5.12 | 200 | > 200
18 | CC(C)(C)C(O)C(Oc1ccc(Cl)cc1)n1cncn1 (stereo not drawn) [Triadimenol] | 5.84 | 5.88 | 5.9 | 5.93 | 5.79 | 5.95 | 5.59 | 200 | > 200
19 | CC(C)=CC1C(C(=O)OCc2coc(Cc3ccccc3)c2)C1(C)C (stereo not drawn) [Resmethrin] | 5.75 | 5.64 | 5.46 | 5.58 | 5.84 | 5.8 | 4.98 | 200 | > 200
20 | Nc1nc(N)c2nc(CNc3ccc(C(=O)NC(CCC(=O)O)C(=O)O)cc3)cnc2n1 (stereo not drawn) [Aminofolic acid, 4-] | 5.89 | 5.91 | 5.86 | 5.86 | 5.82 | 5.82 | 5.39 | 200 | > 200
21 | CC[C@H]1CC[C@H](NCc2cc3c(cc2OC)[C@H]2C[C@H]2C(=O)N3C)[C@H](c2ccccc2)N1 | 5.85 | 5.81 | 5.87 | 5.86 | 5.77 | 5.85 | 5.48 | 200 | > 200
22 | CC(=O)OC/C=C(\C)CCC=C(C)C [Geranyl acetate] | 5.79 | 5.76 | 5.73 | 5.81 | 5.7 | 5.74 | 5.61 | 200 | > 200
